Measurements published in US20110046079A1, “Use of Proton Pump Inhibitors as Drug Delivery Adjuvants” (priority 2008, published 2011).
“And” between values parts separate entries of the source, which are not always exact repeats. Identical values can stand only once. Each block holds one compound with its values, some of them ahead of it.

What was measured:
[1] = system: first-time-presenting GERD patients; assay: Sucrose permeability test before and at the end of an 8 week course of esomeprazole (NEXIUM); type: in vivo, human
Description: Patients with GERD were recruited from a primary care practice, to which they were presenting for the first time with their disease. […] With the exception of their GERD, these patients met the above criteria at the time of their recruitment, and were recruited in a similar manner. […] An 8 hour overnight urine sample was collected in a container with 5 ml of 10% thymol in isopropanol as antimicrobial preservative. A courier service picked up urine containers at the patient's home and delivered them to the research laboratory. Total urine volume and refractive index were measured and recorded. […] This amount of sucrose equates to the amount of sucrose which leaked from the upper GI lumen. The next study posed the question of whether PPI therapy would improve barrier function in the upper GI tract by allowing for reduction of mucosal inflammation and damage ensuing from esophagitis and gastritis. An early hypothesis was that PPI therapy would improve barrier function in the upper GI tract of first-time-presenting GERD patients, by allowing for reduction of mucosal inflammation and damage ensuing from any esophagitis or gastritis. […] As previously mentioned, this was in contrast to an earlier study (Mullin et al. (2006) Dig. Dis. Sci., 51:2326-36) which utilized GERD patients who had been previously diagnosed and under the care of a gastroenterologist. […] A 4 week follow up check was performed on all patients, and all reported significant symptom improvement with mild if any side effects.

healthy controls [2] = assay: Sucrose permeability test, time course and reversibility of the esomeprazole-induced leak; type: in vivo, human; conditions: for durations with statistically significant elevation of sucrose leak: esomeprazole 40 mg once/day for 1, 2, 3, 5, 7 or 9 days, P<0.05
Description: Healthy controls were recruited without regard to gender or ethnicity, from an age range of 18-80. Their exclusion criteria were no prior gastrointestinal surgery and no current gastrointestinal disease. Because of the nature of the permeability test being used, diabetics and those with renal insufficiency were likewise excluded. Those participating did so only after personally signing an informed consent that was approved prior by the Lankenau Hospital Institutional Review Board. […] An 8 hour overnight urine sample was collected in a container with 5 ml of 10% thymol in isopropanol as antimicrobial preservative. A courier service picked up urine containers at the patient's home and delivered them to the research laboratory. Total urine volume and refractive index were measured and recorded. […] This amount of sucrose equates to the amount of sucrose which leaked from the upper GI lumen. The next study was begun to reduce the (disease) variables that may be at play in working with a GERD population and simultaneously assess the time course with which a PPI leak may establish. As described above, a volunteer group of healthy controls without any active GI disease or prior surgeries was recruited. Volunteers were randomly assigned to duration groups of 1, 2, 3, 5, 7 or 9 days. […] As in FIG. 2, a rising bar indicates greater leak in the second test, a falling bar indicates a lower leak at the second test. […] However the average leak of the second test was greater than the first by the second day and then consistently climbed further out through the nine days. […] The figure gives the average leak of the first (pre esomeprazole) test, the second test and the third (4 day post-esomeprazole) test. Although the second test is statistically different from the first or the third (P<0.01), the third test is not statistically different from the first, evidencing the relative rapid reversibility of the leak phenomenon.

[3] = system: rat gastric corpus mucosa; assay: Acid secretion (mucosal fluid pH) of dB-cAMP stimulated tissue in Ussing chambers; conditions: ex vivo addition; 200 μM omeprazole, 200 μM lansoprazole, 100 μM esomeprazole
Description: Water-jacketed reservoirs maintained chamber saline at 37° C.
In order to confirm stimulation of acid secretion by secretagogue addition and to verify the efficacy of the PPI, mucosal fluid compartment pH was recorded at intervals throughout the experiment with a manual electrode (Denver Instruments, Denver, Colo.). Ag/AgCl voltage and current electrodes were used to measure PD (potential difference) and ISC (short circuit current) approximately every five minutes for the duration of the experiment, as previously described (Hameed et al. (2004) Dig. Dis. Sci., 49:1381-1386), using two single-channel current/voltage clamps (McGrath Research and Technology). Ohm's Law was used to calculate transepithelial electrical resistance across the tissue.
Mucosal and serosal saline pH measurements were taken at approximately five minute intervals using a manual electrode (Denver Instruments) to ensure that the tissue was secreting acid. Mucosal pH readings were also taken before and after the addition of omeprazole to document the action of omeprazole on inhibiting acid secretion. Tissue viability was confirmed at the end of each experiment by tissue exposure to 10 mM amiloride in the mucosal fluid compartment in order to inhibit short circuit current.

[4] = system: rat gastric corpus mucosa; assay: Transepithelial flux of 14C-labeled probes (mannitol, sucrose, polyethylene glycol) before and after PPI; conditions: for Post-Omeorazole transmucosal flux / Pre-Omeorazole transmucosal flux: mean +/- SE, 3 experiments; for Pre-Omeorazole transmucosal flux: before 200 μM omeprazole
Description: In each experiment, one adult male Sprague Dawley rat was sacrificed by decapitation. The stomach was removed, flushed, and stripped of its outer serosal membrane, while being frequently moistened with chilled, unbuffered saline. Two pieces of corpus mucosa were mounted in modified Ussing chambers, with exposed tissue surface area of 1.13 cm^2. Chambers were connected to gas-lift reservoirs, with a fluid volume of 17 mL per hemichamber. The mucosal hemichamber was filled with unbuffered saline (with 17 mM glucose) and kept aerated and perfused with 100% O2 at 37° C. […] Water-jacketed reservoirs maintained chamber saline at 37° C.
KRB was adjusted to a pH of 7.3-7.4.
Unbuffered saline was gassed with 100% O2 and was used to bathe the mucosal side of the gastric mucosa.
Approximately 30 minutes after tissues were mounted in Ussing chambers, dibutyrl cyclic AMP (dB-cAMP) (Sigma, St. Louis, Mo.) was added to the serosal sides of both chambers to a concentration of 1 mM in order to stimulate acid output by the tissue.
Three experiments were performed with each PPI, examining gastric permeability to ^14C-mannitol.
Three experiments were performed at each omeprazole concentration.

healthy controls [5] = assay: Sucrose leak test before and after five days of omeprazole or famotidine; type: in vivo, human
Description: An 8 hour overnight urine sample was collected in a container with 5 ml of 10% thymol in isopropanol as antimicrobial preservative. A courier service picked up urine containers at the patient's home and delivered them to the research laboratory. Total urine volume and refractive index were measured and recorded. […] This amount of sucrose equates to the amount of sucrose which leaked from the upper GI lumen.
H-2 blockers such as PEPCID® (famotidine) also cause a GI leak. The instant study was first performed with 20 subjects, all healthy controls. Randomly 10 were put on PPIs (20 mg of omeprazole), 10 on H-2 blockers (40 mg of famotidine). These amounts are standard for acid suppression therapy. […] They were given doses of these drugs in the morning for five days. A sucrose leak test was done the night of the fifth and last day.
Therefore, a second H-2 blocker study was performed looking at leak in an n=5 group but doing evening doses of famotidine and maintaining the other aspects of the above study, with the post H-2 blocker leak test performed again the night of the 5th dose, but now only with a 4-6 hours after the 5th and final dose.

[6] = system: rat gastric corpus mucosa; assay: Transepithelial drug flux studies (3H-digoxin, 14C-phenytoin, mucosal to serosal) before and after omeprazole or DMSO; type: in vitro ADME; conditions: 0.1 mM probe
Description: Sprague Dawley male rats weighing approximately 400 grams were sacrificed by decapitation and the stomach was quickly removed, cut along the greater curvature, and flushed of luminal contents. The serosal membrane was then stripped from the corpus region and two equal sized pieces of corpus mucosa were mounted in two separate Ussing chambers with exposed tissue areas of 1.13 cm^2. Chambers were connected to 15 mL gas-lift reservoirs filled with un-buffered saline aerated with 100% O2 and bicarbonate-buffered saline aerated with 95% O2/5% CO2 on the mucosal and serosal sides, respectively. Saline temperature was held constant at 37° C. by a jacketed water bath surrounding the reservoirs. 30 minutes at 37° C. was allowed for tissue equilibration. In paired experiments, one tissue served as (vehicle) ‘control’, and the other as omeprazole-treated ‘experimental’.
After 30 minutes of tissue equilibration time in Ussing chambers, dibutyrl cyclic AMP (dBcAMP) (Sigma) was added to a final concentration of 1 mM to the serosal fluid chambers to stimulate acid secretion. […] The addition of the isotope marked the beginning of the flux period. 150 μL or 250 μL samples were taken from the serosal fluid compartment (opposite from which the isotope was added) for liquid scintillation counting (LSC). Samples were initially taken at 30 minute intervals for 90 minutes for the ^14C-phenytoin flux or at 15 minute intervals for 75 minutes for the ^3H-digoxin flux to establish the basal permeability rate (ρmoles/min/cm^2) across the tissue. 200 μM omeprazole (Sigma) (in DMSO) was then added to the mucosal and serosal sides of one chamber and an equivalent amount of DMSO (Sigma) was also added to both sides of the control chamber. Another series of serosal fluid samples were taken for LSC at 15 or 30 minute intervals for the remaining 60 minutes of ^3H-digoxin or ^14C-phenytoin flux experiments, respectfully, to determine flux rate of the radiolabeled drugs after omeprazole addition. In all cases of fluid sampling for liquid scintillation counting, an equal amount of fresh buffered saline was added back to the serosal side to prevent hydrostatic gradients from developing across the tissue. The flux of each isotope (ρmole/min/cm^2) was determined by calculating the linear regression slope of the graph of cpm versus time, and converting cpm to picomoles after determining the specific activity of the drug in the mucosal fluid.
To observe if the omeprazole-induced leak allows for permeation of certain small molecule drugs, ^3H-digoxin was added to the mucosal fluid compartment and saline samples were taken at 15 minute intervals from the serosal fluid compartments for a 135-minute flux period. Omeprazole and/or DMSO were added to their respective tissues 75 minutes after the addition of the isotope. Radioactivity present in the serosal fluid compartment was measured as a function of time before and after the addition of omeprazole or DMSO.

[7] = 0.1 mM 14C-labeled probe, after 200 μM omeprazole

Structure (SMILES): COc1ccc2nc([S@@+]([O-])Cc3ncc(C)c(OC)c3C)[nH]c2c1 [esomeprazole]
average initial sucrose leak ([1]; before esomeprazole, 26 patients, mean, SEM): 72 mg
average initial leak, all patients ([1]; before esomeprazole, all 37 patients): 179 mg
patients whose post-NEXIUM sucrose leak was smaller ([1]; end of 8 week course vs before): 4 of 25
patients whose post-NEXIUM sucrose leak was greater ([1]; end of 8 week course vs before, total sucrose in overnight urine): 21 of 26
patients with increased leak above the 200 mg threshold level ([1]; end of 8 week esomeprazole 40 mg/day): 14 of 21
mean final sucrose leak ([1]; end of 8 week esomeprazole 40 mg/day, 26 patients, mean, SEM): 325 mg
final leak, all patients ([1]; end of 8 week esomeprazole 40 mg/day, all 37 patients): 307 mg
sucrose leak in third test (reversibility) (healthy controls [2]; 4 days after finishing 5, 7 or 9 day esomeprazole course, n=9): decreases to near baseline
leak in second test greater than first (pre esomeprazole) test, average (healthy controls [2]; day 9 of esomeprazole 40 mg once/day): ~400 mg
durations with statistically significant elevation of sucrose leak (healthy controls [2]): fifth day
durations with statistically significant elevation of sucrose leak (healthy controls [2]; listed as NEXIUM®): 5, 7 and 9 day durations
effect on acid secretion (rate of mucosal acidification) [3]: inhibited acid secretion
% Increase in Flux of 14C-[D]-mannitol ([4]; 100 μM PPI): 101.62%
% Increase in Flux of 14C-[D]-mannitol ([4]; 100 μM PPI, listed as Esomeprazole): 101.62 +/− 10.04%

Structure (SMILES): Cc1c(OCC(F)(F)F)ccnc1C[S+]([O-])c1nc2ccccc2[nH]1 (centres unmarked) [lansoprazole, 2-(((3-methyl-4-(2,2,2-trifluoro-ethoxy)-2-pyridinyl)methyl)sulfinyl)-1H benzimidazole]
effect on acid secretion (rate of mucosal acidification) [3]: inhibited acid secretion
% Increase in Flux of 14C-[D]-mannitol ([4]; 200 μM PPI): 83.35%
% Increase in Flux of 14C-[D]-mannitol ([4]; 200 μM PPI, listed as Lansoprazole): 83.35 +/− 20.71%

Structure (SMILES): NC(N)=Nc1nc(CSCCC(N)=NS(N)(=O)=O)cs1 [famotidine]
pre-med sucrose leak (healthy controls [5]; baseline before medication, n=10 per group, SEM): 50 mg
pre H-2 blocker leak, second study (healthy controls [5]; baseline, n=5, SEM): 46 mg
post H-2 blocker leak, second study (healthy controls [5]; evening doses of famotidine, test 4-6 hours after 5th dose, n=5, P=0.03): 132 mg
post med sucrose leak (healthy controls [5]; morning doses for five days (20 mg omeprazole or 40 mg famotidine), test night of fifth day, n=10): 110 mg

Post-Omeorazole transmucosal flux [4, 7]: 24.19 +/− 4.67 ρmoles/min/cm^2
Pre-Omeorazole transmucosal flux ([4]; 0.1 mM 14C-labeled probe): 11.71 +/− 3.39 ρmoles/min/cm^2
Structure (SMILES): OC[C@H]1O[C@@](CO)(O[C@H]2O[C@H](CO)[C@@H](O)[C@H](O)[C@H]2O)[C@@H](O)[C@@H]1O [Sucrose]

Structure (SMILES): OC[C@@H](O)[C@@H](O)[C@H](O)[C@H](O)CO [[D]-Mannitol]
% Increase in Flux [4, 7]: 68.72% and 68.72 +/− 8.32%
Post-Omeorazole transmucosal flux [4, 7]: 37.81 +/− 1.32 ρmoles/min/cm^2
Pre-Omeorazole transmucosal flux ([4]; 0.1 mM 14C-labeled probe): 22.45 +/− 0.61 ρmoles/min/cm^2
% Increase in Flux After Omeprazole ([6]; 200 μM omeprazole): 68.7% ± 8.4%
Post-Omeprazole Flux Value ([6]; after 200 μM omeprazole, corrected by TLC): 31.6 ± 3.9 ρmole/min/cm^2
Pre-Omeprazole Flux Value ([6]; before 200 μM omeprazole, 3 experiments): 21.2 ± 5.3 ρmole/min/cm^2
% Increase in Flux After DMSO ([6]; vehicle control tissue): 23.0% ± 15.3%
Post-DMSO Flux Value ([6]; vehicle control tissue, corrected by TLC): 27.2 ± 2.4 ρmole/min/cm^2
Pre-DMSO Flux Value ([6]; vehicle control tissue, mean ± SEM, 3 experiments): 22.7 ± 3.3 ρmole/min/cm^2
